Laboratory results taken from patent US7858621B2 (Amorepacific Corporation, priority 2006, dated 2010).

The molecules below were run against T1, vanilloid receptor (Rattus norvegicus, UniProt O35433) (assay: 45Ca influx test in cultured neonatal rat DRG neurons, inhibition of capsaicin response). Conditions: neonatal rat DRG neurons, capsaicin 0.5 μM, 45Ca influx; read-out: Antagonist Calcium Uptake Test (IC50).
T1 construct: DRG nerve cells from the primary culture of 2 days were equilibrated; endogenous in cells; host or cells: primary culture of dorsal root ganglion neurons from neonatal SD rats
T1 sequence (O35433 whole entry): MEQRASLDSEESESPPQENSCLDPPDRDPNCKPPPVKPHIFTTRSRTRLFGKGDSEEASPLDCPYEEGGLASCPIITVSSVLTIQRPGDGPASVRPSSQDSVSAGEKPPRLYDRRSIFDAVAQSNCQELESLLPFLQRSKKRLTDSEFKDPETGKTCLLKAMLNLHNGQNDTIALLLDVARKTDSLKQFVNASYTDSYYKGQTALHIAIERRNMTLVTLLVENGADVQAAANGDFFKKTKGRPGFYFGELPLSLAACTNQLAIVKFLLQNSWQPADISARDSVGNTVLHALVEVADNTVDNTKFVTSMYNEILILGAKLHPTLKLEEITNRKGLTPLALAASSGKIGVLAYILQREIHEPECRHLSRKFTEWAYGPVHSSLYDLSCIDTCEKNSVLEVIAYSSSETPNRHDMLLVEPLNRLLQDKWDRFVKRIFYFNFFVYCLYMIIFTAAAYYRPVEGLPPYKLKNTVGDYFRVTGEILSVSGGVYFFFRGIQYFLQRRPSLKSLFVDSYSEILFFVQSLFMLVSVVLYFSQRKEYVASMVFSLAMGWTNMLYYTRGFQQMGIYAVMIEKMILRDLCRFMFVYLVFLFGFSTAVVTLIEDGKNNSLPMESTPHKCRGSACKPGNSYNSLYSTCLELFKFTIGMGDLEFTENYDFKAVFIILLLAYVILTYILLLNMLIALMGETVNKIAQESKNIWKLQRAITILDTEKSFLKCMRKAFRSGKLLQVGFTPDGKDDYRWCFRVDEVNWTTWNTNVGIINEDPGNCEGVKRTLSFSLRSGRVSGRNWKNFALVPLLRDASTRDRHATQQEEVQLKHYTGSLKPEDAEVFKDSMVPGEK
Type: cell-based
Experimental: 1) Separation of Spinal Dorsal Root Ganglia (DRG) in Newborn Rats and Primary Culture Thereof
Neonatal (2-3 day old or younger than 2-3 day old) SD rats were put in ice for 5 minutes to anesthetize and disinfected with 70% ethanol. […] The DRG were incubated sequentially at 37° C. for 30 mins in 200 U/ml collagenase and 2.5 mg/ml trypsin, separately. The ganglia were washed twice with DME/F12 medium supplemented with 10% horse serum, triturated through a fire-polished Pasteur pipette, filtered through Nitex 80 membrane to obtain single cell suspension and the suspension was washed once more. This was subjected to centrifugation, then resuspended in cell culture medium at certain level of cell density. As the cell culture medium, DME/F12 medium supplemented with 10% horse serum was diluted with identical medium conditioned by C6 glioma cells 2 days on a confluent monolayer (1:1), and NGF (Nerve Growth Factor) was added to adjust 200 ng/ml as final concentration. After the cells were grown 2 days in medium where cytosine arabinoside (Ara-C, 100 μM) was added to kill dividing nonneuronal cells, medium was changed to one without Ara-C. The resuspended cells were plated at a density of 1500-2000 neurons/well onto Terasaki plates previously coated with 10 μg/ml poly-D-ornithine.
2) ^45Ca Influx Experiments
DRG nerve cells from the primary culture of 2 days were equilibrated by washing 4 times with HEPES (10 mM, pH 7.4)-buffered Ca^2+, Mg^2+-free HBSS (H-HBSS). The solution in each well was removed from the individual well. Medium containing the test compound plus capsaicin (final concentration 0.5 μM) and ^45Ca (final concentration 10 μCi/ml) in H-HBSS was added to each well and incubated at room temperature for 10 mins. Terasaki plates were washed five times with H-HBSS and dried at room temperature. To each well, 0.3% SDS (10 μl) was added to elute ^45Ca. After the addition of scintillation cocktail of into each well, the amount of ^45Ca influx into neuron was measured by counting radioactivity.

IC50	Compound
150 nM	CCCNc1nc(C(F)(F)F)ccc1/C=C/C(=O)NCc1ccc(NS(C)(=O)=O)c(Cl)c1 [Example 254, N-(3-Chloro-4-methanesulfonylamino-benzyl)-3-(2-propylamino-6-trifluoromethyl)-pyridin-3-yl-acrylamide]
59 nM	C#Cc1cc(CNC(=O)/C=C/c2ccc(C(C)(C)C)nc2Br)cc(F)c1NS(C)(=O)=O [Example 37, 3-(2-Bromo-6-tert-butyl-pyridin-3-yl)-N-(3-ethynyl-5-fluoro-4-methanesulfonylamino-benzyl)-acrylamide]
> 10000 nM	Cc1ccc(OCC(=O)NCc2ccc(NS(C)(=O)=O)c(F)c2)c(CO)n1 [Example 31, N-(3-Fluoro-4-methanesulfonylamino-benzyl)-2-(2-hydroxymethyl-6-methyl-pyridin-3-yloxy)-acetamide]
> 10000 nM	CC(C)Nc1nc(C(F)(F)F)ccc1/C=C/C(=O)NCc1ccc(NS(=O)(=O)C(F)(F)F)cc1 [Example 270, 3-(2-Isopropylamino-6-trifluoromethyl-pyridin-3-yl)-N-(4-trifluoromethanesulfonylamino-benzyl)-acrylamide]
2300 nM	C#Cc1cc(CNC(=O)/C=C/c2ccc(C(F)(F)F)nc2C#CCN(CC)CC)cc(F)c1NS(C)(=O)=O [Example 190]
960 nM	CCN(CC)c1nc(C(F)(F)F)ccc1/C=C/C(=O)NCc1ccc(NS(C)(=O)=O)c(F)c1 [Example 47, 3-(2-Diethylamino-6-trifluoromethyl-pyridin-3-yl)-N-(3-fluoro-4-methanesulfonylamino-benzyl)-acrylamide]
86 nM	CCCCc1nc(C(F)(F)F)ccc1/C=C/C(=O)NCc1cc(F)c(NS(C)(=O)=O)c(F)c1 [Example 205, 3-(2-Butyl-6-trifluoromethyl-pyridin-3-yl)-N-(3,5-difluoro-4-methanesulfonylamino-benzyl)-acrylamide]
190 nM	CCNc1nc(C(F)(F)F)ccc1/C=C/C(=O)NCc1cc(F)c(NS(C)(=O)=O)c(C#N)c1 [Example 259, N-(3-Cyano-5-fluoro-4-methanesulfonylamino-benzyl)-3-(2-ethylamino-6-trifluoromethyl-pyridin-3-yl)-acrylamide]
260 nM	C#Cc1cc(CNC(=O)/C=C/c2ccc(C(F)(F)F)nc2N2CCCC2)cc(F)c1NS(C)(=O)=O [Example 62, N-(3-Ethynyl-5-fluoro-4-methanesulfonylamino-benzyl)-3-(2-pyrrolidin-1-yl-6-trifluoromethyl-pyridin-3-yl)-acrylamide]
85 nM	CC(C)Cc1nc(C(F)(F)F)ccc1/C=C/C(=O)NCc1cc(F)c(NS(C)(=O)=O)c(F)c1 [Example 226, N-(3,5-Difluoro-4-methanesulfonylamino-benzyl)-3-(2-isobutyl-6-trifluoromethyl-pyridin-3-yl)-acrylamide]
120 nM	C#Cc1cc(CNC(=O)/C=C/c2ccc(C(F)(F)F)nc2Oc2ccccc2)cc(F)c1NS(C)(=O)=O [Example 78, N-(3-Ethynyl-5-fluoro-4-methanesulfonylamino-benzyl)-3-(2-phenoxy-6-trifluoromethyl-pyridin-3-yl)-acrylamide]
> 10000 nM	CS(=O)(=O)Nc1ccc(CNC(=O)/C=C/c2ccc(N3CCCC3)nc2)cc1F [Example 25, N-(3-Fluoro-4-methanesulfonylamino-benzyl)-3-(6-pyrrolidin-1-yl-pyridin-3-yl)-acrylamide]
810 nM	C#Cc1cc(CNC(=O)C#Cc2ccc(C(F)(F)F)nc2NCCCC)cc(F)c1NS(C)(=O)=O [Example 260, 3-(2-Butylamino-6-trifluoromethyl-pyridin-3-yl)-propynoic acid, 3-ethynyl-5-fluoro-4-methanesulfonylamino-benzylamide]
520 nM	C#Cc1cc(CNC(=O)/C=C/c2ccc(C(C)(C)C)nc2)cc(F)c1NS(C)(=O)=O [Example 3, 3-(6-tert-Butyl-pyridin-3-yl)-N-(3-ethynyl-5-fluoro-4-methanesulfonylamino-benzyl)-acrylamide]
590 nM	C#Cc1cc(CNC(=O)/C=C/c2ccc(C(F)(F)F)nc2N(C)C)cc(F)c1NS(C)(=O)=O [Example 94, 3-(2-Dimethylamino-6-trifluoromethyl-pyridin-3-yl)-N-(3-ethynyl-5-fluoro-4-methanesulfonylamino-benzyl)-acrylamide]
3200 nM	Cc1nc(C(F)(F)F)ccc1/C=C/C(=O)NCc1ccc(NS(C)(=O)=O)c(F)c1 [Example 69, N-(3-Fluoro-4-methanesulfonylaminobenzyl)-3-(2-methyl-6-trifluoromethylpyridin-3-yl)acrylamide]
220 nM	C=Cc1cc(CNC(=O)/C=C/c2ccc(C(C)(C)C)nc2)ccc1NS(C)(=O)=O [Examples 4]
4900 nM	CS(=O)(=O)Nc1ccc(CNC(=O)/C=C/c2ccc(C(F)(F)F)nc2NCCO)cc1F [Example 61, N-(3-Fluoro-4-methanesulfonylamino-benzyl)-3-[2-(2-hydroxy-ethylamino)-6-trifluoromethyl-pyridin-3-yl]-acrylamide]
2200 nM	CS(=O)(=O)Nc1ccc(CNC(=O)/C=C/c2ccc(C(F)(F)F)nc2OCC(F)(F)F)cc1F [Example 87, N-(3-Fluoro-4-methanesulfonylamino-benzyl)-3-[2-(2,2,2-trifluoro-ethoxy)-6-trifluoromethyl-pyridin-3-yl]-acrylamide]
88 nM	CCC(C)Nc1nc(C(F)(F)F)ccc1/C=C/C(=O)NCc1cc(F)c(NS(C)(=O)=O)c(C#N)c1 (centres unmarked) [Example 124, 3-(2-sec-Butylamino-6-trifluoromethyl-pyridin-3-yl)-N-(3-cyano-5-fluoro-4-methanesulfonylamino-benzyl)-acrylamide]
> 10000 nM	C#Cc1cc(CNC(=O)COc2ccc(Cl)nc2)cc(F)c1NS(C)(=O)=O [Example 35, 2-(6-Chloro-pyridin-3-yloxy)-N-(3-ethynyl-5-fluoro-4-methanesulfonylamino-benzyl)-acetamide]
130 nM	C#Cc1cc(CNC(=O)/C=C/c2ccc(C(F)(F)F)nc2OC(C)C)cc(F)c1NS(C)(=O)=O [Example 70, 3-(2-Isopropoxy-6-trifluoromethyl-pyridin-3-yl)-N-(3-ethynyl-5-fluoro-4-methanesulfonylamino-benzyl)-acrylamide]
200 nM	C#Cc1cc(CNC(=O)/C=C/c2cc(Cl)c(C(F)(F)F)nc2CCCC)cc(F)c1NS(C)(=O)=O [Example 76, 3-(2-Butyl-5-chloro-6-trifluoromethyl-pyridin-3-yl)-N-(3-ethynyl-5-fluoro-4-methanesulfonylamino-benzyl)-acrylamide]
340 nM	C#Cc1cc(CNC(=O)/C=C/c2ccc(C(F)(F)F)nc2Sc2ccccc2)cc(F)c1NS(C)(=O)=O [Example 139, N-(3-Ethynyl-5-fluoro-4-methanesulfonylamino-benzyl)-3-(2-phenylthio-6-trifluoromethyl-pyridin-3-yl)-acrylamide]
550 nM	CCOC(=O)C1CCN(c2nc(C(F)(F)F)ccc2/C=C/C(=O)NCc2ccc(NS(C)(=O)=O)c(F)c2)CC1 [Example 95, N-(3-Fluoro-4-methanesulfonylamino-benzyl)-3-[2-(4-ethoxycarbonyl-piperid-1-yl)-6-trifluoromethyl-pyridin-3-yl]-acrylamide]
340 nM	CS(=O)(=O)Nc1ccc(CNC(=O)/C=C/c2ccc(C(F)(F)F)nc2CCc2ccccc2)cc1 [Example 264, N-(4-Methanesulfonylamino-benzyl)-3-(2-phenethyl-6-trifluoromethyl-pyridin-3-yl)-acrylamide]
